# Earlier results, collected in article PMC6582641 (Organic & biomolecular chemistry, 2019).
# Key:
# TRPC5 = settings: read-out: IC50 towards TRPC5
# TRPC4 = settings: read-out: IC50 TRPC4
IC50 (TRPC5) [nM],IC50 (TRPC4) [nM],binding activity toward TRPC3 (TRPC3),binding activity toward TRPC6 (TRPC6),binding activity toward TRPV1 (TRPV (vanilloid) 1),binding activity toward TRPV4 (TRPV (vanilloid) 4),binding activity toward TRPA1 (TRPA (ankyrin) 1),binding activity toward TRPM2 (TRPM (melastatin) 2),binding activity toward TRPM8 (TRPM (melastatin) 8),SMILES,anxiolytic and antidepressant effects (mice)
–,–,–,–,–,–,–,–,–,"Cn1c(=O)n(CCCO)c(=O)c2c1nc(Oc1cccc(Cl)c1)n2Cc1ccc(Cl)cc1 [HC070, 7-(4-Chlorobenzyl)-8-(3-Chlorophenoxy)-1-(3-Hydroxypropyl)-3-Methyl-3,7-Dihydro-1H-Purine-2,6-Dione]",produces anxiolytic and antidepressant effects in mice
6.2,32.5,no binding activities,no binding activities,no binding activities,no binding activities,no binding activities,no binding activities,no binding activities,"Cn1c(=O)n(CCCO)c(=O)c2c1nc(Oc1cccc(OC(F)(F)F)c1)n2Cc1ccc(Cl)cc1 [HC608, 7-(4-Chlorobenzyl)-1-(3-Hydroxypropyl)-3-Methyl-8-(3-(Trifluoromethoxy)Phenoxy)-3,7-Dihydro-1H-Purine-2,6-Dione]",–
